Reference: patent US20240140931A1, “TRICYCLIC COMPOUNDS AND USES THEREOF” (HUTCHMED LIMITED, priority 2021, published 2024)
pIC50: −log10 of the molar value.

Assays:
[1] = target: Human full-length SHP2 recombinant protein (Homo sapiens (Human), UniProt Q06124); experiment: Assay of full-length SHP2 phosphatase activity; type: biochemical; conditions: DiFMUP substrate, with activating peptide
Description: Example 2 Assay of Full-Length SHP2 Phosphatase Activity
1. Reagents and Materials • Human full-length SHP2 recombinant protein: BPS Bioscience, Cat #79018; • SHP2 substrate DiFMUP (1 mM): BPS Bioscience, Cat #79769; • SHP2 activating peptide (100 μM): BPS Bioscience, Cat #79319-2; • DTT: Merck, Cat #DTT-RO; • 384-well plate: Corning, Cat #3575; • 96-well plate: Thermo Fisher Scientific, Cat #249952; • Instrument: EnVision 2104, PerkinElmer.
2. Preparation of Reaction Solutions
The test compound was dissolved in DMSO and diluted with DMSO to 100.0 μM, and the compound was further 3-fold diluted with DMSO to: 100.00, 33.33, 11.11, 3.70, 1.23, 0.41, 0.14 and 0.05 μM.
3. Experimental Steps • To the corresponding wells of the 384-well plate was added 2.5 μL of 4× test compound or 2.5 μL of 4% DMSO solution, and centrifugation was carried out at 1000 rpm for 30 seconds. • To the test compound well and positive control well was added 2.5 μL of 4× mixed solution of SHP2 enzyme/activating peptide while to the negative control well was added 2.5 μL of 1× enzymatic reaction buffer; centrifugation was carried out at 1000 rpm for 30 seconds and incubation was carried out at room temperature for 30 minutes. • To each well was added 5 μL of 2×DiFMUP substrate to initiate the enzymatic reaction, then the plate was transiently oscillated and centrifuged at 1000 rpm for 30 seconds, and the 384-well plate was sealed with a sealing membrane and incubated at 25° C. on a low-speed shaker (100 rpm) in the dark for 60 minutes. • The fluorescence value (relative fluorescence units, RFU) of each well was detected on EnVision2104 (excitation: 355 nm, emission: 460 nm).
wherein • the RFU of compound well refers to the fluorescence reading at 460 nm of the well containing the test compounds; • the RFU of negative control well refers to the fluorescence reading at 460 nm of the background well containing 1% DMSO and the enzymatic reaction buffer; • the RFU of positive control well refers to the fluorescence reading at 460 nm of the well containing 1% DMSO and the mixed solution of SHP2 enzyme/activating peptide.
(§1) IC50 values were calculated following formula 205: y=A+((B−A)/(1+((C/X)^D))), by using the XL-Fit 5.0 software.

[2] = test system: pERK1/2 (Thr202/Tyr204) in Miapaca2 cells; experiment: Assay of intracellular pERK1/2 (Thr202/Tyr204) phosphorylation; type: cell-based
Description: Example 3 Assay of Intracellular pERK1/2 (Thr202/Tyr204) Phosphorylation
1. Reagents and Materials • pERK1/2 (Thr202/Tyr204) HTRF kit: Cisbio, Cat #64ERKPEH; • Cell line: Miapaca2, ATCC, CRL-1420; • OptiPlate™-384-well plate: PerkinElmer, Cat #6007299; • 96-well plate: Corning, Cat #353072; • Instrument: EnVision2104, PerkinElmer.
2. Preparation of Reaction Solutions • The test compound was dissolved in DMSO and diluted with DMSO to 600.0 μM, and the compound was further 3-fold diluted with DMSO to: 600.0, 200.0, 66.7, 22.2, 7.4, 2.5, 0.82 and 0.27 μM. Then 10 μL of the compound at different dilution concentrations was added to 190 μL of a DMEM medium to prepare a 10× test compound, wherein DMSO was at the concentration of 5% (DMSO was at the final concentration of 0.5%). • 1× cell lysis buffer: 4× cell lysis stock solution (provided by the kit) was diluted 4-fold with deionized water, and then 1% 100× blocking stock solution (provided by the kit) was added thereto. • pERK1/2 detection solution (prepared just before use): the pERK1/2 d2 antibody (provided by the kit) and pERK1/2 Cryptate antibody (provided by the kit) were diluted with the detection solution (provided by the kit) at a ratio of 1:1:38.
3. Experimental Steps • Miapaca2 cells were inoculated into a 96-well plate at a density of 10000 cells/well at 90 μL/well and cultured in a cell incubator at 5% CO2 and 37° C. overnight. • 10 μL of 10× test compound was added to the 90 μL cell culture 96-well plate; to the cell positive control well was added 10 μL of 5% DMSO culture solution; and the plate was cultured in a cell incubator at 5% CO2 and 37° C. for 2 hours. • The medium in the 96-well plate was removed; 50 μL of 1× cell lysis buffer was added to each well; the plate was placed in a microplate shaker; and lysis under shaking was carried out at 900 rpm at room temperature for 1 hour. • 16 μL of the lysis buffer in the 96-well plate was taken and transferred to a 384-well plate, and centrifugation was carried out at 1000 rpm for 30 seconds; then 4 μL of pERK1/2 detection solution was added to each well and centrifugation was carried out at 1000 rpm for 30 seconds; and the 384-well plate was sealed with a sealing membrane and incubated at 25° C. on a low-speed shaker (100 rpm) in the dark for 2 hours. • The fluorescence value (relative fluorescence units, RFU) of each well was detected on EnVision2104 (emission 1: 665 nm, emission 2: 615 nm).
wherein • the fluorescence ratio of compound well refers to the fluorescence ratio of the well containing the test compounds; • the fluorescence ratio of negative control well refers to the fluorescence ratio of the background containing the cell lysis buffer and no Miapaca2 cells; • the fluorescence ratio of positive control well refers to the fluorescence ratio of the well containing 0.5% DMSO and Miapaca2 cells.
as §1

[3] = Homo sapiens, MIA PaCa-2, 2 h, pERK1/2 (Thr202/Tyr204) HTRF
[4] = pERK1/2 (Thr202/Tyr204) HTRF, 2 hours

Human full-length SHP2 recombinant protein, sequence (Q06124 whole entry): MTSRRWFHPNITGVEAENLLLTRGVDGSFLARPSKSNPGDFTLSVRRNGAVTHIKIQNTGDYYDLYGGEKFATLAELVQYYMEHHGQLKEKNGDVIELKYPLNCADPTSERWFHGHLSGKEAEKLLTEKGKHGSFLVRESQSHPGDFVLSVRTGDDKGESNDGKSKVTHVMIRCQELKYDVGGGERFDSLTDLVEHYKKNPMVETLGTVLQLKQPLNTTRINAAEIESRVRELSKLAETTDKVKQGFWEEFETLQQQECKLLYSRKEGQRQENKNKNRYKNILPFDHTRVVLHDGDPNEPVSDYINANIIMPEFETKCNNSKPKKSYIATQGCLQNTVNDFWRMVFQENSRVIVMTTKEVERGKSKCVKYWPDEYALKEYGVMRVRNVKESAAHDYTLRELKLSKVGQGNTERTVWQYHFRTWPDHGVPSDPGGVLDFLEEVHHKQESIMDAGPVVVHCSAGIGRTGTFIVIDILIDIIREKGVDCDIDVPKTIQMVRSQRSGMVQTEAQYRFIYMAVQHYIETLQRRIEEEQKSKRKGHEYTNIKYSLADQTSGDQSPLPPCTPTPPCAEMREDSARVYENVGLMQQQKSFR

Row | Compound | pIC50 [1] | pIC50 [2, 3] | pIC50 [2, 4] | pIC50 ([2]; Homo sapiens, MIA PaCa-2, pERK1/2 (Thr202/Tyr204) HTRF, 2 hours)
1 | Nc1nccc(Sc2cnc(N3CCC4(CC3)Cc3ccc(C#CC(=O)N5CCC5)cc3[C@H]4N)cn2)c1Cl [Compound 303] | 9.30 | 8.05 |  | 
2 | COCC#Cc1ccc2c(c1)[C@@H](N)C1(CCN(c3cc(=O)n(-c4cccc(Cl)c4Cl)c(C)n3)CC1)C2 [Compound 30] | 8.70 | 8.10 |  | 
3 | C#Cc1ccc2c(c1)[C@@H](N)C1(CCN(c3ncc(N4CCCc5ncccc54)c(=O)n3C)CC1)C2 [Compound 287] | 7.92 | 6.85 |  | 
4 | C#Cc1ccc2c(c1)[C@@H](N)C1(CCN(c3cc(=O)n(-c4ccc(C#N)c(OC)c4Cl)c(C)n3)CC1)C2 (atropisomer, axis not shown) [Compound 190] | 6.60 |  | 6.17 | 
5 | C#Cc1ccc2c(c1)CC1(CCN(c3nc(N)c(-c4cn(C)c5ncccc45)c(=O)n3C)CC1)[C@@H]2N [Compound 4, (S)-6-amino-2-(1-amino-5-ethynyl-1,3-dihydrospiro[indene-2,4′-piperidin]-1′-yl)-3-methyl-5-(1-methyl-1H-pyrrolo[2,3-b]pyridin-3-yl)pyrimidin-4(3H)-one] | 8.40 | 6.80 |  | 
6 | C#Cc1ccc2c(c1)[C@@H](N)C1(CCN(c3cc(=O)n(-c4ccc(F)c(F)c4Cl)c(C)n3)CC1)C2 (atropisomer, axis not shown) [Compound 114] | 7.28 |  | 6.55 | 
7 | C#Cc1ccc2c(c1)CC1(CCN(c3ncc(-c4cn(C)c5ncccc45)c4nccn34)CC1)[C@@H]2N [Compound 6] | 6.38 | < 5.52 |  | 
8 | C#Cc1ccc2c(c1)CC1(CCN(c3ncc(Sc4ccnc(NCCOC)c4Cl)c4nccn34)CC1)[C@@H]2N [Compound 3] | 8.05 | 7.09 |  | 
9 | C#Cc1cccc2c1CC1(CCN(c3cc(=O)n(-c4cccc(Cl)c4Cl)c(C)n3)CC1)[C@@H]2N [Compound 80] | 8.40 | 6.90 |  | 
10 | NC(=O)C#Cc1ccc2c(c1)[C@@H](N)C1(CCN(c3ncc(Sc4ccnc(N)c4Cl)nc3CO)CC1)C2 [Compound 123] | 9.22 | 8.40 |  | 
11 | Cc1nc(N2CCC3(CC2)Cc2ccc(C#CCO)cc2[C@H]3N)cc(=O)n1-c1cc(Cl)ccc1Cl [Compound 85] | 7.30 | 6.11 |  | 
12 | C#Cc1ccc2c(c1)[C@@H](N)C1(CCN(c3cc(=O)n(-c4cccc(Cl)c4Cl)c(C)n3)CC1)C2 (atropisomer, axis not shown) [Compound 12, (S)-6-(1-amino-6-ethynyl-1,3-dihydrospiro[indene-2,4′-piperidin]-1′-yl)-3-(2,3-dichlorophenyl)-2-methylpyrimidin-4(3H)-one] | 9.00 |  |  | 8.15
13 | C#Cc1ccc2c(c1)[C@@H](N)C1(CCN(c3cc(=O)n(-c4cccc(Cl)c4Cl)c(C)n3)CC1)C2 [Compound 64] | 6.74 | 6.05 |  | 
14 | CNC(=O)C#Cc1ccc2c(c1)[C@@H](N)C1(CCN(c3ncc(N4CCCc5ncccc54)nc3C)CC1)C2 [Compound 263] | 8.05 | 6.69 |  | 
15 | C#Cc1ccc2c(c1)[C@@H](N)C1(CCN(c3cnc(Sc4ccnc(N)c4Cl)c(N)n3)CC1)C2 [Compound 95] | 8.52 | 8.70 |  | 
16 | C#Cc1ccc2c(c1)[C@@H](N)C1(CCN(c3cc(=O)n(-c4c(F)cccc4F)c(C)n3)CC1)C2 [Compound 35] | 7.77 | 6.56 |  | 

Row | Compound | pIC50 [1] | pIC50 [2, 3] | pIC50 [2, 4] | pIC50 ([2]; Homo sapiens, MIA PaCa-2, pERK1/2 (Thr202/Tyr204) HTRF, 2 hours)
17 | Cc1nc(N2CCC3(CC2)Cc2ccc(C#CCO)cc2[C@H]3N)cc(=O)n1-c1cccc(Cl)c1Cl [Compound 32] | 9.00 | 8.22 |  | 
18 | Cc1c(N2CCC3(CC2)Cc2ccc(C#CCN(C)C)cc2[C@H]3N)nc(C)n(-c2cccc(Cl)c2Cl)c1=O (atropisomer, axis not shown) [Compound 50] | 7.82 |  | 6.50 | 
19 | C#Cc1ccc2c(c1)[C@@H](N)C1(CCN(c3cc(=O)n(-c4ccc(C#N)c(O)c4F)c(C)n3)CC1)C2 [Compound 185] | 7.85 | < 6.00 |  | 
20 | C#Cc1ccc2c(c1)[C@@H](N)C1(CCN(c3cc(=O)n(-c4ccc(C#N)c(F)c4Cl)c(C)n3)CC1)C2 [Compound 198] | 7.80 | 6.72 |  | 
21 | C#Cc1ccc2c(c1)[C@@H](N)C1(CCN(c3nc(C)n(-c4cccc(Cl)c4Cl)c(=O)c3C)CC1)C2 (atropisomer, axis not shown) [Compound 49] | 8.52 |  | 7.74 | 
22 | CNC(=O)C#Cc1ccc2c(c1)[C@@H](N)C1(CCN(c3cc(=O)n(-c4cccc(OC)c4Cl)c(C)n3)CC1)C2 (atropisomer, axis not shown) [Compound 181] | 7.36 |  | 6.35 | 
23 | Cc1nc(N2CCC3(CC2)Cc2ccc(C#C[C@@H](C)O)cc2[C@H]3N)cc(=O)n1-c1cccc(Cl)c1Cl [Compound 37] | 7.36 | 6.22 |  | 
24 | Cc1nc(N2CCC3(CC2)Cc2ccc(C#CC(N)=O)cc2[C@H]3N)cc(=O)n1-c1cccc(Cl)c1Cl [Compound 127] | 9.22 | 7.89 |  | 
25 | Cc1nc(N2CCC3(CC2)Cc2ccc(Nc4cnn(C)c4)cc2[C@H]3N)cc(=O)n1-c1cccc(Cl)c1Cl [Compound 63] | 8.40 | 6.75 |  | 
26 | C#Cc1ccc2c(c1)[C@@H](N)C1(CCN(c3cc(=O)n(-c4ccc(F)c(Cl)c4Cl)c(C)n3)CC1)C2 [Compound 69] | 8.30 |  | 7.18 | 
27 | C#Cc1ccc2c(c1)[C@@H](N)C1(CCN(c3nc(C)n(-c4ccc(F)cc4Cl)c(=O)c3C)CC1)C2 (atropisomer, axis not shown) [Compound 103] | 7.77 |  | 7.10 | 
28 | C#Cc1ccc2c(c1)CC1(CCN(c3nc(N)c(Sc4ccnc(N)c4Cl)c(=O)n3C)CC1)[C@@H]2N [Compound 5] | 8.70 | 7.64 |  | 
29 | C#Cc1ccc2c(c1)OC1(CCN(c3cc(=O)n(-c4cccc(Cl)c4Cl)c(C)n3)CC1)[C@@H]2N (atropisomer, axis not shown) [Compound 11] | 7.01 | 5.94 |  | 
30 | CC#Cc1ccc2c(c1)[C@@H](N)C1(CCN(c3cc(=O)n(-c4ccc(F)c(F)c4Cl)c(C)n3)CC1)C2 [Compound 214] | 8.40 |  | 7.00 | 
31 | C#Cc1ccc2c(c1)[C@@H](N)C1(CCN(c3cc(=O)n(-c4ccc(F)c(OC)c4F)c(C)n3)CC1)C2 (atropisomer, axis not shown) [Compound 88] | 9.10 |  | 7.59 | 
